Earlier results as cited in US8802735B2, “(Z)-2-cyano-3-hydroxy-but-2-enoic acid-(4'-trifluormethylphenyl)-amide tablet formulations with improved stability” (Sanofi, priority 2009, dated 2014).

Target: dihydroorotate dehydrogenase (Homo sapiens, UniProt Q02127)
Conditions: Bruneau J-M, et al., Biochem. J. 1998

dihydroorotate dehydrogenase, sequence (Q02127 whole entry): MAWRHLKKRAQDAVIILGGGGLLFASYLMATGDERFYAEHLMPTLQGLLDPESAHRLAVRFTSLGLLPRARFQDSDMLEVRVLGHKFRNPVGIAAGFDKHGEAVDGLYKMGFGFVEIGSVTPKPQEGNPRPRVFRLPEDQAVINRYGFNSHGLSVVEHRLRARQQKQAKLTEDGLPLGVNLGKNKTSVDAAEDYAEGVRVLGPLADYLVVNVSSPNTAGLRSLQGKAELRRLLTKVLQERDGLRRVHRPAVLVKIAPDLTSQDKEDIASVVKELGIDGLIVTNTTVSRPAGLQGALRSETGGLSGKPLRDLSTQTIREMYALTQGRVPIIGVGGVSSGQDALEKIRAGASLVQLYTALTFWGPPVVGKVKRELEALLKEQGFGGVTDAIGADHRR

SMILES: C/C(O)=C(\C#N)C(=O)Nc1ccc(C(F)(F)F)cc1 [Teriflunomide, (Z)-2-cyano-3-hydroxy-but-2-enoic acid-(4′-trifluoromethylphenyl)-amide]
- inhibition of the enzyme dihydroorotate dehydrogenase: inhibits
